Tests used:
in vitro = details: human
physchem = details: octan-1-ol/water

Structure (SMILES) | microsomal CLint (in vitro; liver microsomes) | logD (physchem; pH 7.4, LogD7.4) | logD (physchem; pH 7.4) | microsomal CLint (in vitro; microsomes)
Cc1ccccc1CCOCCCS(=O)(=O)CCNCCc1ccc(O)c2nc(O)sc12 | > 150 µL/min/mg |  |  | 
CCc1nc2c(N)nc3ccccc3c2n1Cc1ccccc1 | < 3 µL/min/mg | 3.29 |  | 
NS(=O)(=O)c1ccc(Nc2nccc(-c3ccccc3)n2)cc1 | < 3 µL/min/mg | 2.86 |  | 
CN1CCN(C(=O)c2cc3cc(Br)ccc3[nH]2)CC1 | 20.5 µL/min/mg | 2.79 |  | 
Cc1ccc(C(=O)Nc2ccon2)cc1NC(=O)c1cnn(-c2ccccc2F)c1N | < 3 µL/min/mg | 2.6 |  | 
Cc1ccc2c(c1)C1(CCN(CCc3nc(-c4ccccc4)oc3C)CC1)OC(=O)N2 | 79.4 µL/min/mg |  | 4.2 | 
CC(NCC(O)c1ccc([N+](=O)[O-])cc1)C12CC3CC(CC(C3)C1)C2 (stereo not given) | 30.5 µL/min/mg | 3.53 |  | 
O=C(O)COc1ccc(Cl)cc1CN1CCCN(S(=O)(=O)c2ccccc2)CC1 |  |  |  | < 3 µL/min/mg
C[C@@H]1CN(Cc2cc(Cl)ccc2OCC(=O)O)C[C@H](C)N1C(=O)Cc1ccccc1 |  |  |  | < 3 µL/min/mg
C[C@H]1CN(Cc2cc(Cl)ccc2OCC(=O)O)CCN1C(=O)Cc1cccc(Cl)c1 |  |  | 0.78 | < 3 µL/min/mg
C[C@H]1CN(Cc2cc(Cl)ccc2CC(=O)O)CCN1S(=O)(=O)Cc1ccccc1 |  |  |  | < 3 µL/min/mg
O=C(O)COc1ccc(C(F)(F)F)cc1-c1ccccc1-c1ccccc1 |  |  |  | < 3 µL/min/mg
C=CCN(C(=O)Cc1ccc(S(C)(=O)=O)cc1)C1CCN(CCC(c2ccccc2)c2ccccc2)CC1 | 10 µL/min/mg | 3.1 |  | 
NC(=O)Nc1cc(-c2ccsc2)sc1C(N)=O | 45 µL/min/mg |  |  | 
COc1ccc(C=NN=Cc2ccc(OC)c(OC)c2)cc1OC | 19 µL/min/mg | 3.38 |  | 
Cc1c(Sc2ccc(Cl)cc2)c2cc(Cl)ccc2n1CC(=O)O | < 3 µL/min/mg | 2.87 |  | 
Cc1c(Sc2ccc(Cl)cc2)c2cc(Cl)ccc2n1C(C)C(=O)O (stereo not given) |  | 3.56 |  | < 3 µL/min/mg
Cc1ccc2c(c1)c(Sc1ccccc1Cl)c(C)n2CC(=O)O |  |  |  | < 3 µL/min/mg
Cc1c(Oc2ccc(Cl)cc2)c2cc(F)ccc2n1CC(=O)O |  |  |  | < 3 µL/min/mg
CCS(=O)(=O)Nc1cccc2c1c(Oc1ccc(Cl)cc1)c(C)n2CC(=O)O |  |  |  | < 3 µL/min/mg
N#Cc1ccc(Nc2nccc(NC3CC3)n2)cc1 | 45 µL/min/mg | 3.01 |  | 

Structure (SMILES) | microsomal CLint (in vitro; liver microsomes) | logD (physchem; pH 7.4, LogD7.4) | logD (physchem; pH 7.4) | microsomal CLint (in vitro; microsomes)
O=C(CCc1ccccc1O)Nc1ccccc1 | 30 µL/min/mg | 2.71 |  | 
Nc1nc(Nc2cccc(Br)c2)c2[nH]cnc2n1 |  | 3.04 |  | 16 µL/min/mg
Nc1nc(Nc2ccc(F)c(Cl)c2)c2nc[nH]c2n1 | 15 µL/min/mg | 2.75 |  | 
CCN(C(=O)Cc1ccc(S(C)(=O)=O)cc1)C1CCN(CCC(c2ccccc2)C2CCN(Cc3ccccc3)CC2)CC1 (stereo not given) | > 150 µL/min/mg |  |  | 
CCN(C(=O)Cc1ccc(S(C)(=O)=O)cc1)C1CCN(CC[C@@H](c2cc(C)cc(C)c2)C2CCN(S(C)(=O)=O)CC2)CC1 | > 150 µL/min/mg |  |  | 
COc1ccc(-c2ccnc(N)n2)cc1 | 41 µL/min/mg | 2.08 |  | 
Cc1ccc(C(=O)NC2CCC2)cc1-n1cnc2ccc(N3CCN(C)CC3)cc2c1=O | 5 µL/min/mg | 2.25 |  | 
Nc1c(C(=O)c2cccc(OC[C@H](O)CO)c2)cnn1-c1ccc(F)cc1 |  | 1.94 |  | < 3 µL/min/mg
O=C(Nc1ccc(S(=O)(=O)N2CCOCC2)cc1)c1cc(Cl)ccc1NS(=O)(=O)c1ccc(Cl)s1 | < 3 µL/min/mg | 3.02 |  | 
Cc1c(OC2CCN(CC3CCN([C@@H](Cc4ccc(F)cc4)C(=O)O)CC3)CC2)ccc(C#N)c1Cl |  |  |  | 5.5 µL/min/mg
O=C(O)C(c1ccccc1)N1CCCC(CN2CCC(Oc3ccc(Cl)c(Cl)c3)CC2)C1 (stereo not given) | < 3 µL/min/mg | 2.6 |  | 
O=C(O)[C@@H](c1ccccc1)N1CCC(CN2CCC(Oc3ccc(Cl)c(Cl)c3)CC2)CC1 |  | 2.14 |  | < 3 µL/min/mg
O=C(O)c1cccnc1N1CCC(CN2CCC(Oc3ccc(Cl)c(Cl)c3)CC2)CC1 |  |  |  | 4 µL/min/mg
O=C(NS(=O)(=O)c1cccc(Cl)c1)N1CCC(N2CCC(Oc3ccc(Cl)c(Cl)c3)CC2)CC1 | 6 µL/min/mg | 2.62 |  | 
O=C(NS(=O)(=O)Cc1ccccc1)N1CCC(N2CCC(Oc3ccc(Cl)c(Cl)c3)CC2)CC1 | < 3 µL/min/mg | 2.13 |  | 
Cc1cc(Cl)ccc1OC1CCN(C[C@H](O)CNC(=O)c2c[nH]nc2C(F)(F)F)CC1 |  | 3.02 |  | < 3 µL/min/mg
O=C(NC[C@@H](O)CN1CCC(Oc2ccc(Cl)c(Cl)c2)CC1)c1n[nH]c2ccccc12 | < 3 µL/min/mg | 2.95 |  | 
O=C(NC[C@@H](O)CN1CCC(Oc2ccc(Cl)c(Cl)c2)CC1)c1cnnc2ccccc12 | 8 µL/min/mg | 3.28 |  | 
CC(=O)Nc1ccc(O)cc1OC[C@@H](O)CN1CCC2(CC1)Cc1cc(F)ccc1O2 |  | 2.1 |  | < 3 µL/min/mg
COCCNCc1ccc(Nc2ncc3cc(-c4ccncc4)ccc3n2)cc1 | 42.7 µL/min/mg | 1.86 |  | 
Nc1nccc(-n2ccc3ccccc32)n1 | 112 µL/min/mg | 2.71 |  | 

Structure (SMILES) | microsomal CLint (in vitro; liver microsomes) | logD (physchem; pH 7.4, LogD7.4) | logD (physchem; pH 7.4) | microsomal CLint (in vitro; microsomes)
c1cn(-c2ccc(Oc3nccc(Oc4ccc5c(c4)OCO5)n3)cc2)cn1 |  | 3.27 |  | 13 µL/min/mg
Cc1cnc(Oc2ccc(-n3ccnc3)cc2)nc1Oc1ccc2c(c1)OCO2 | < 3 µL/min/mg | 3.56 |  | 
C[C@H](CO)Nc1nc(SCc2ccccc2)nc2[nH]c(=O)[nH]c12 | < 3 µL/min/mg | 2.75 |  | 
C[C@H](CO)Nc1nc(SCc2cccc(F)c2F)nc2[nH]c(=O)ccc12 | 9 µL/min/mg | 3.36 |  | 
COc1cccc(NC(=O)CC23CC4CC(CC(C4)C2)C3)c1C | > 150 µL/min/mg |  |  | 
CCCN1CCC(Oc2nccc(Nc3cc(NC(=O)c4cccc(N5CCOCC5)c4)ccc3C)n2)CC1 | 54 µL/min/mg | 2.6 |  | 
CCN(C(=O)Cc1ccc(S(C)(=O)=O)cc1)C1CCN(CCC(c2ccccc2)c2ccccc2)CC1 | 16 µL/min/mg | 3 |  | 
Nc1nc2nc(SCc3cccc(F)c3F)[nH]c(=O)c2s1 | < 3 µL/min/mg | 2.5 |  | 
Cc1cc(Oc2ccc3c(c2)OCO3)nc(Oc2ccc(-n3ccnc3)cc2)n1 | < 3 µL/min/mg | 3.47 |  | 
NC(=O)Nc1sc(-c2ccccc2)cc1C(N)=O |  | 2.42 |  | 21 µL/min/mg
CC(=O)c1ccc(N2CCN(S(=O)(=O)C[C@]34CC[C@H](CC3=O)C4(C)C)CC2)nc1 | > 150 µL/min/mg | 2.21 |  | 
COc1ccc(N(C(=O)c2occc2Cl)C(C(=O)NC[C@@H](C)O)c2ccccc2F)c(OC)c1 (stereo not given in full) |  |  |  | 145 µL/min/mg
O=C(CC12CC3CC(CC(C3)C1)C2)Nc1c(Cl)ccc2nc(CN3CCN(CCO)CC3)ccc12 | 79.5 µL/min/mg | 2.93 |  | 
CC1CCC(CC(=O)Nc2cccc3ncccc23)CC1 (stereo not given) | 38 µL/min/mg | 3.56 |  | 
O=C(CC1CCCCC1)Nc1c(Cl)ccc2nc(NCCCO)ccc12 |  | 3.29 |  | 25 µL/min/mg
O=C(O)c1cccc(-c2ccc3c(C(=O)NCC45CC6CC(CC(C6)C4)C5)c(Cl)ccc3n2)c1 | 33 µL/min/mg | 2.84 |  | 
CCCCC(CC)CNC(=O)c1cc(-n2ncc(=O)[nH]c2=O)ccc1Cl (stereo not given) | 24 µL/min/mg | 2.41 |  | 
CCN(CC)Cc1cc(Nc2ccnc3cc(Cl)ccc23)ccc1O [AMODIAQUINE] |  |  |  | > 150 µL/min/mg
CC(C(=O)O)c1ccc(-c2ccccc2)c(F)c1 (stereo not given) [FLURBIPROFEN] | 23.5 µL/min/mg |  |  | 

Reference: ChEMBL document CHEMBL3301361, “Experimental in vitro DMPK and physicochemical data on a set of publicly disclosed compounds”
